According to patent US9920050B2, “Fused heterocyclic compound and pest control use thereof” (Sumitomo Chemical Company, Limited, priority 2013, dated 2018):

Columns and labels:
Assay type in all cases: in vivo
Musca domestica = experiment: Test Example 8: treated filter paper with sucrose bait, Musca domestica; conditions: 500 ppm, 0.7 ml on filter paper, female imagoes, after 24 hours
Description: The formulations of Compounds of Present Invention 1, 9, 15 to 16, 19, 22, 24, 31 to 32, 34, 41 and 45 to 46 as produced in Formulation Example 5 were diluted with water, so as to have a concentration of the active ingredient of 500 ppm, to prepare each test drug solution.
(§1) A filter paper having a diameter of 5.5 cm was spread on the bottom of a polyethylene cup having the same diameter and 0.7 ml of the test drug solution was added dropwise onto the filter paper, and 30 mg of sucrose was uniformly placed as bait. Into the polyethylene cup, 10 female imagoes of Musca domestica were released, and the cup was sealed with a lid. After 24 hours, the life and death of Musca domestica was examined, the number of dead insects was counted, and the death rate was calculated according to the following equation. Death rate (%)=(Number of dead insects/Number of tested insects)×100

[1] = tested on: Haemaphysalis longicornis; experiment: Test Example 11: coated screw tube contact test, Haemaphysalis longicornis ticks; conditions: 2 mg compound coated on inner wall of screw tube, unfed nymphal ticks, after 2 days
Description: Two milligrams of each of Compounds of Present Invention 8 to 9, 20, 22 and 31 to 32 was weighed out in a screw tube (Maruemu No. 5; 27×55 mm), and 0.2 mL of acetone was added thereto, and the screw tube was sealed with a cap to dissolve the compound. The screw tube was rotated and inverted to uniformly coat the drug solution onto the whole inner wall of the tube. After removing the cap, the solution was air-dried for about 2 hours, then unfed nymphal ticks, Haemaphysalis longicornis (5 ticks/group) were released, and the tube was sealed with the cap. After 2 days, the number of dead insects was counted, and the death rate was calculated according to the following equation: Death rate (%)=100×(Number of dead insects/Number of tested insects)

Blattella germanica = experiment: Test Example 9: treated filter paper with sucrose bait, Blattella germanica; conditions: 500 ppm, 0.7 ml on filter paper, male imagoes, after 6 days
Description: The formulations of Compounds of Present Invention 9, 15 to 16, 19, 22, 30 to 32, 34, 41 and 45 to 46 as produced in Formulation Example 5 were diluted with water, so as to have a concentration of the active ingredient of 500 ppm, to prepare each test drug solution.
as §1, with “2 male” for “10 female”, “Blattella germanica” for “Musca domestica”, “6 days,” for “24 hours,”

| SMILES | death rate (Musca domestica) | death rate [1] | death rate (Blattella germanica) |
| --- | --- | --- | --- |
| CCS(=O)(=O)c1cc(NC(=O)OCc2ccccc2)cnc1-c1nc2cc(C(F)(F)F)cnc2n1C [compound 1] | 100% |  |  |
| CCS(=O)(=O)c1cc(NC(=O)C2CCC2)cnc1-c1nc2cc(C(F)(F)F)cnc2n1C [compound 8] |  | 100% |  |
| CCS(=O)(=O)c1cc(NC2CC2)cnc1-c1nc2cc(C(F)(F)F)cnc2n1C [compound 9] | 100% | 100% | 100% |
| CCS(=O)(=O)c1cc(NNC(=O)OC)cnc1-c1nc2cc(C(F)(F)F)cnc2n1C [compound 15] | 100% |  | 100% |
| CCS(=O)(=O)c1cc(NC(=O)C(=O)N(C)C)cnc1-c1nc2cc(C(F)(F)F)cnc2n1C [compound 16] | 100% |  | 100% |
| CCS(=O)(=O)c1cc(NN)cnc1-c1nc2cc(C(F)(F)F)cnc2n1C [compound 19] | 100% |  | 100% |
| CCS(=O)(=O)c1cc(NCC2CCOC2)cnc1-c1nc2cc(C(F)(F)F)cnc2n1C (stereo not drawn) [compound 20] |  | 100% |  |
| CCS(=O)(=O)c1cc(NC(=O)C2CC2)cnc1-c1nc2cc(C(F)(F)F)cnc2n1C [compound 22] | 100% | 100% | 100% |
| CCS(=O)(=O)c1cc(NC(=O)c2ccccn2)cnc1-c1nc2cc(C(F)(F)F)cnc2n1C [compound 24] | 100% |  |  |
| CCS(=O)(=O)c1ccc(NOC)nc1-c1nc2cc(C(F)(F)F)cnc2n1C [compound 30] |  |  | 100% |
| CCS(=O)(=O)c1ccc(NC2CC2)nc1-c1nc2cc(C(F)(F)F)cnc2n1C [compound 31] | 100% | 100% |  |
| CCS(=O)(=O)c1ccc(NC2CC2)nc1-c1nc2cc([S+]([O-])C(F)(F)F)ccc2o1 (stereo not drawn) [compound 32] | 100% | 100% | 100% |
| CCS(=O)(=O)c1ccc(NCc2ccccc2)nc1-c1nc2cc([S+]([O-])C(F)(F)F)ccc2o1 (stereo not drawn) [compound 34] | 100% |  | 100% |
| CCS(CC)=Nc1ccc(S(=O)(=O)CC)c(-c2nc3cc([S+]([O-])C(F)(F)F)ccc3o2)n1 (stereo not drawn) [compound 41] | 100% |  | 100% |
| CCS(=O)(=O)c1ccc(NC(=O)C2CC2)nc1-c1nc2cc([S+]([O-])C(F)(F)F)ccc2o1 (stereo not drawn) [compound 45] | 100% |  | 100% |
| CCS(=O)(=O)c1ccc(NCc2ccc(Cl)nc2)nc1-c1nc2cc([S+]([O-])C(F)(F)F)ccc2o1 (stereo not drawn) [compound 46] | 100% |  | 100% |
